EC50 data for 42 molecules are collected here from patent publication US8916702B2 (priority 2012, dated 2014).

The test system of the experiment is HCV pseudoparticles (genotype 1a HCV E1 and E2 envelope, H77C isolate). Briefly: microbe, parasite or virus in culture. Type of experiment: cell-based. The conditions noted are these: Hepatitis C virus.
Where [1] appears, read: Huh-7, 48 h, read-out: Activity (EC50 class), HCV pseudoparticles, Huh7 cells, luciferase 2 days after infection, average of duplicates.
The mark [2] stands for this setting: Huh-7, 48 h, HCV pseudoparticles, Huh7 cells, luciferase 2 days after infection, average of duplicates.
The mark [3] stands for this setting: Huh-7, 48 h, read-out: Activity (EC50 class), HCV pseudoparticle infection of Huh7 cells, luciferase 2 days after infection, EC50 expressed as class A/B.
[4] abbreviates: Huh-7, 48 h, HCV pseudoparticles (genotype 1a, H77C) in Huh7 cells, average of duplicate, luciferase 2 days after infection.
Where [5] appears, read: Huh-7, read-out: Activity (EC50 class), HCV pseudoparticles (genotype 1a, H77C) in Huh7 cells, EC50 expressed as class A/B.

Each structure is given as a SMILES string. Read-outs that look alike come from different tables or passages of the source.

By EC50 is commonly meant the concentration giving half of the maximal effect.

With `CC(C)(CNC(=O)C(=O)Nc1ccc(-c2cccc(F)c2)cc1)CNC(=O)c1ccc(Nc2nc(NC3(c4ccc(Cl)cc4)CC3)nc(OCC(F)(F)F)n2)cc1` [Compound 3797], the EC50 under setting [1] fell in the range of 0.01 to 10 nM. Turning to `COC(=O)[C@H](CNC(=O)C(=O)Nc1cccc(-c2ncc[nH]2)c1)NC(=O)c1ccc(Nc2nc(NC3(c4ccc(Cl)cc4)CC3)nc(OCC(F)(F)F)n2)cc1` [Compound 3709], the EC50 was 0.71 nM under setting [2] and 0.01 to 10 nM under setting [1]. As to `O=C(NCC[C@H](NC(=O)c1ccc(Nc2nc(NC3(c4ccc(Cl)cc4)CC3)nc(OCC(F)(F)F)n2)cc1)C(=O)O)C(=O)NCC1(Cn2cccn2)CC1` [Compound 1428], under setting [3], the EC50 lay within 0.01 to 10 nM. With `COC(=O)[C@H](CNC(=O)C(=O)Nc1cccc(-c2csc(C)n2)c1)NC(=O)c1ccc(Nc2nc(NC3(c4ccc(Cl)cc4)CC3)nc(OCC(F)(F)F)n2)cc1` [Compound 3718], the EC50 under setting [1] was in the range of 0.01 to 10 nM. `CC(C)(CNC(=O)C(=O)Nc1ccc(Cc2ccccc2)cc1)CNC(=O)c1ccc(Nc2nc(NC3(c4ccc(Cl)cc4)CC3)nc(OCC(F)(F)F)n2)cc1` [Compound 1579]: the EC50 under setting [3] was in the range of 0.01 to 10 nM.

With `Cc1ccc(NC(=O)C(=O)N(C)CCCNC(=O)c2ccc(Nc3nc(NC4(c5ccc(Cl)cc5)CC4)nc(OCC(F)(F)F)n3)cc2)cc1` [Compound 3445], the EC50 under setting [4] turned out to be 0.061 nM and the EC50 under setting [5] lay in the range of 0.01 to 10 nM. As to `CCOC(=O)[C@H](CCCNC(=O)C(N)=O)NC(=O)c1ccc(Nc2nc(NC3(c4ccc(Cl)cc4)CC3)nc(OCC(F)(F)F)n2)cc1` [Compound 1029, (S)-ethyl 5-(2-amino-2-oxoacetamido)-2-(4-(4-(1-(4-chlorophenyl)cyclopropylamino)-6-(2,2,2-trifluoroethoxy)-1,3,5-triazin-2-ylamino)benzamido)pentanoate], the EC50 under setting [3] is 0.01 to 10 nM. The same measure, in the same setting: then `CC(C)(CNC(=O)C(=O)Nc1cccc(-c2ccccc2)c1)CNC(=O)c1ccc(Nc2nc(NC3(c4ccc(Cl)cc4)CC3)nc(OCC(F)(F)F)n2)cc1` [Compound 1582], with 0.01 to 10 nM.

Consider `COC(=O)[C@H](CNC(=O)C(=O)NCCc1ccccn1)NC(=O)c1ccc(Nc2nc(NC3(c4ccc(Cl)cc4)CC3)nc(OCC(F)(F)F)n2)cc1` [Compound 1282], for which the EC50 under setting [3] is 0.01 to 10 nM. Still for that read-out and setting: for `COC(=O)[C@H](CCNC(=O)C(=O)NCCc1ccncc1)NC(=O)c1ccc(Nc2nc(NC3(c4ccc(Cl)cc4)CC3)nc(OCC(F)(F)F)n2)cc1` [Compound 1311] the value was 0.01 to 10 nM.

In the case of `COC(=O)[C@H](CNC(=O)C(=O)Nc1ccc(Oc2ccc(C(C)(C)C)cc2)nc1)NC(=O)c1ccc(Nc2nc(NC3(c4ccc(Cl)cc4)CC3)nc(OCC(F)(F)F)n2)cc1` [Compound 3698], the EC50 under setting [1] lay in the range of 0.01 to 10 nM. As to `NC(=O)C(=O)NC[C@H](NC(=O)c1ccc(Nc2nc(NC3(c4ccc(Cl)cc4)CC3)nc(OCC(F)(F)F)n2)cc1)C(=O)O` [Compound 1005, (S)-3-(2-amino-2-oxoacetamido)-2-(4-(4-(1-(4-chlorophenyl)cyclopropylamino)-6-(2,2,2-trifluoroethoxy)-1,3,5-triazin-2-ylamino)benzamido)propanoic acid], under setting [3], the EC50 was 0.01 to 10 nM.

For the molecule `O=C(NC[C@H](NC(=O)c1ccc(Nc2nc(NC3(c4ccc(Cl)cc4)CC3)nc(OCC(F)(F)F)n2)cc1)C(=O)O)C(=O)Nc1cccc(-c2ccccc2)c1` [Compound 3751], the EC50 under setting [2] amounted to 0.14 nM and the EC50 under setting [1] fell in the range of 0.01 to 10 nM. As for `NC(=O)c1ccc(NC(=O)C(=O)NC/C(=N/C(=O)c2ccc(Nc3nc(NC4(c5ccc(Cl)cc5)CC4)nc(OCC(F)(F)F)n3)cc2)C(=O)O)cc1` [Compound 3156], the EC50 under setting [5] fell in the range of 0.01 to 10 nM. For the molecule `COC(=O)[C@H](CNC(=O)C(=O)Nc1ccncc1)NC(=O)c1ccc(Nc2nc(NC3(c4ccc(Cl)cc4)CC3)nc(OCC(F)(F)F)n2)cc1` [Compound 1258], the EC50 under setting [3] was in the range of 0.01 to 10 nM. On the same count and under the same terms, then `COCC(NC(=O)C(=O)NCC[C@H](NC(=O)c1ccc(Nc2nc(NC3(c4ccc(Cl)cc4)CC3)nc(OCC(F)(F)F)n2)cc1)C(=O)O)C1CC1` (stereo partly drawn) [Compound 1441], with 0.01 to 10 nM; and `COC(=O)[C@H](CCNC(=O)C(=O)NC1CCC(F)(F)CC1)NC(=O)c1ccc(Nc2nc(NC3(c4ccc(Cl)cc4)CC3)nc(OCC(F)(F)F)n2)cc1` [Compound 1099], with 0.01 to 10 nM. With `O=C(NCC[C@H](NC(=O)c1ccc(Nc2nc(NC3(c4ccc(Cl)cc4)CC3)nc(OCC(F)(F)F)n2)cc1)C(=O)O)C(=O)Nc1ccc(-c2ncco2)cc1` [Compound 3547], the EC50 is 2.09 nM under setting [4] and 0.01 to 10 nM under setting [5]. Consider `O=C(NCC[C@H](NC(=O)c1ccc(Nc2nc(NC3(c4ccc(Cl)cc4)CC3)nc(OCC(F)(F)F)n2)cc1)C(=O)O)C(=O)Nc1cccc(C(=O)Nc2ccccc2)c1` [Compound 3617], for which, under setting [1], the EC50 lay in the range of 0.01 to 10 nM.

Turning to `COC(=O)[C@H](CNC(=O)C(=O)Nc1cccc(-c2nncn2C)c1)NC(=O)c1ccc(Nc2nc(NC3(c4ccc(Cl)cc4)CC3)nc(OCC(F)(F)F)n2)cc1` [Compound 3719], the EC50 under setting [1] was 0.01 to 10 nM. Regarding `CC(C)(CNC(=O)C(=O)Nc1cccc(C(=N)N)c1)CNC(=O)c1ccc(Nc2nc(NC3(c4ccc(Cl)cc4)CC3)nc(OCC(F)(F)F)n2)cc1` [Compound 3041], the response under setting [4] was half-maximal at 0.068 nM (EC50) and the EC50 under setting [5] lay within 0.01 to 10 nM. For the molecule `CC(C)(CNC(=O)C(=O)Nc1ccc2ncsc2c1)CNC(=O)c1ccc(Nc2nc(NC3(c4ccc(Cl)cc4)CC3)nc(OCC(F)(F)F)n2)cc1F` [Compound 3566], the EC50 under setting [5] was 0.01 to 10 nM. Still for that read-out and setting: for `COC(=O)[C@H](CCNC(=O)C(=O)Nc1ccc(Cn2cncn2)cc1)NC(=O)c1ccc(Nc2nc(NC3(c4ccc(Cl)cc4)CC3)nc(OCC(F)(F)F)n2)cc1` [Compound 3299] the value was 0.01 to 10 nM; for `COC(=O)[C@H](CCNC(=O)C(=O)Nc1ccc(N2Cc3ccccc3C2)cc1)NC(=O)c1ccc(Nc2nc(NC3(c4ccc(Cl)cc4)CC3)nc(OCC(F)(F)F)n2)cc1` [Compound 3306], 0.01 to 10 nM. With `O=C(NCC[C@H](NC(=O)c1ccc(Nc2nc(NC3(c4ccc(Cl)cc4)CC3)nc(OCC(F)(F)F)n2)cc1)C(=O)O)C(=O)Nc1ccc(N2CCOCC2)nc1` [Compound 3628], the EC50 under setting [1] was in the range of 0.01 to 10 nM. For the molecule `CC(C)(CNC(=O)C(=O)Nc1nc2c(Cl)c(Cl)ccc2s1)CNC(=O)c1ccc(Nc2nc(NC3(c4ccc(Cl)cc4)CC3)nc(OCC(F)(F)F)n2)cc1` [Compound 3821], the EC50 under setting [1] fell in the range of 0.01 to 10 nM. On the same count and under the same terms, then `O=C(NCC[C@H](NC(=O)c1ccc(Nc2nc(NC3(c4ccc(Cl)cc4)CC3)nc(OCC(F)(F)F)n2)cc1)C(=O)O)C(=O)Nc1cccc(Oc2ccccc2)c1` [Compound 3620], with 0.01 to 10 nM. With `COC(=O)[C@H](CNC(=O)C(=O)Nc1ccc(OCC(F)(F)F)cc1)NC(=O)c1ccc(Nc2nc(NC3(c4ccc(Cl)cc4)CC3)nc(OCC(F)(F)F)n2)cc1` [Compound 3096], the 50% effective concentration (EC50) under setting [5] lay within 0.01 to 10 nM. Still for that read-out and setting: for `CC(C)(CNC(=O)C(=O)Nc1ccon1)CNC(=O)c1ccc(Nc2nc(NC3(c4ccc(Cl)cc4)CC3)nc(OCC(F)(F)F)n2)cc1` [Compound 3040] the value was 0.01 to 10 nM. On to `COC(=O)[C@H](CNC(=O)C(=O)Nc1ccc(C(C)(C)C)cc1)NC(=O)c1ccc(Nc2nc(NC3(c4ccc(Cl)cc4)CC3)nc(OCC(F)(F)F)n2)cc1` [Compound 3211], for which the EC50 under setting [5] fell in the range of 0.01 to 10 nM. Still for that read-out and setting: for `COC(=O)[C@@H](CCNC(=O)C(=O)Nc1ccc(Oc2ccc(Cl)cc2Cl)nc1)NC(=O)c1ccc(Nc2nc(NC3(c4ccc(Cl)cc4)CC3)nc(OCC(F)(F)F)n2)cc1` [Compound 3580] the value was 10 to 1000 nM; for `COC(=O)c1cccc(-c2ccccc2NC(=O)C(=O)NCC(C)(C)CNC(=O)c2ccc(Nc3nc(NC4(c5ccc(Cl)cc5)CC4)nc(OCC(F)(F)F)n3)cc2)c1` [Compound 3045], 0.01 to 10 nM.

In the case of `O=C(NCC[C@H](NC(=O)c1ccc(Nc2nc(NC3(c4ccc(Cl)cc4)CC3)nc(OCC(F)(F)F)n2)cc1)C(=O)O)C(=O)Nc1cccc(Cc2ccccc2)c1` [Compound 3639], the concentration giving a half-maximal response (EC50) under setting [1] fell in the range of 0.01 to 10 nM. For the molecule `CC(C)(CNC(=O)C(=O)NCc1cccc(Cl)c1)CNC(=O)c1ccc(Nc2nc(NC3(c4ccc(Cl)cc4)CC3)nc(OCC(F)(F)F)n2)cc1` [Compound 3020], the EC50 under setting [5] fell in the range of 0.01 to 10 nM. Take `COC(=O)[C@@H](CCNC(=O)C(=O)Nc1cccc(OC(F)(F)F)c1)NC(=O)c1ccc(Nc2nc(NC3(c4ccc(Cl)cc4)CC3)nc(OCC(F)(F)F)n2)cc1` [Compound 3577]: the EC50 runs as follows: under setting [4], 0.16 nM; under setting [5], 0.01 to 10 nM. Take `Cc1cc2cccc(NC(=O)C(=O)NCC(C)(C)CNC(=O)c3ccc(Nc4nc(NC5(c6ccc(Cl)cc6)CC5)nc(OCC(F)(F)F)n4)cc3)c2o1` [Compound 3354]: the EC50 under setting [5] lay in the range of 0.01 to 10 nM. The same measure, in the same setting: for `O=C(NC[C@H](NC(=O)c1ccc(Nc2nc(NC3(c4ccc(Cl)cc4)CC3)nc(OCC(F)(F)F)n2)cc1)C(=O)O)C(=O)Nc1ccc(-c2c[nH]c(N3CCOCC3)n2)cc1` [Compound 3284] the value was 0.01 to 10 nM. For `CCOCC1(CNC(=O)C(=O)NCC[C@@H](NC(=O)c2ccc(Nc3nc(NC4(c5ccc(Cl)cc5)CC4)nc(OCC(F)(F)F)n3)cc2)C(=O)OC)CC1` [Compound 1379], the EC50 under setting [3] fell in the range of 0.01 to 10 nM.

With `Cc1ccc(NC(=O)C(=O)NCC(C)(C)CNC(=O)c2ccc(Nc3nc(NC4(c5ccc(Cl)cc5)CC4)nc(OCC(F)(F)F)n3)cc2)c(Cl)c1` [Compound 3378], the EC50 under setting [5] lay in the range of 0.01 to 10 nM. On to `COc1cccc2sc(NC(=O)C(=O)NCC(C)(C)CNC(=O)c3ccc(Nc4nc(NC5(c6ccc(Cl)cc6)CC5)nc(OCC(F)(F)F)n4)cc3)nc12` [Compound 3813], for which the EC50 under setting [1] fell in the range of 0.01 to 10 nM. With `COC(=O)[C@H](CCNC(=O)C(=O)Nc1ccc(-c2ccccc2)c(OC)c1)NC(=O)c1ccc(Nc2nc(NC3(c4ccc(Cl)cc4)CC3)nc(OCC(F)(F)F)n2)cc1` [Compound 1518], under setting [3], the EC50 lay within 0.01 to 10 nM. Turning to `Cn1cnnc1-c1cccc(NC(=O)C(=O)NC[C@H](NC(=O)c2ccc(Nc3nc(NC4(c5ccc(Cl)cc5)CC4)nc(OCC(F)(F)F)n3)cc2)C(=O)O)c1` [Compound 3774], the EC50 under setting [1] lay in the range of 0.01 to 10 nM.
